Assay results reported in patent US8653062B2, “Compounds as receptor modulators with therapeutic utility” (Allergan, Inc., priority 2009, dated 2014).
pEC50: −log10 of the molar value.

Key:
[1] = target: T1, human S1P1 receptor (Homo sapiens, UniProt P21453); experiment: GTP γ35S binding assay for S1P1 activity; type: biochemical; details: membranes of cells stably expressing S1P1 receptor, 30 min at 25° C.
T1 construct: expressed in transfected cells; membranes used
Procedure: Compounds were synthesized and tested for S1P1 activity using the GTP γ^35S binding assay. These compounds may be assessed for their ability to activate or block activation of the human S1P1 receptor in cells stably expressing the S1P1 receptor.
GTP γ^35S binding was measured in the medium containing (mM) HEPES 25, pH 7.4, MgCl2 10, NaCl 100, dithitothreitol 0.5, digitonin 0.003%, 0.2 nM GTP γ^35S, and 5 μg membrane protein in a volume of 150 μl. Test compounds were included in the concentration range from 0.08 to 5,000 nM unless indicated otherwise. Membranes were incubated with 100 μM 5′-adenylylimmidodiphosphate for 30 min, and subsequently with 10 μM GDP for 10 min on ice. Drug solutions and membrane were mixed, and then reactions were initiated by adding GTP γ^35S and continued for 30 min at 25° C. Reaction mixtures were filtered over Whatman GF/B filters under vacuum, and washed three times with 3 mL of ice-cold buffer (HEPES 25, pH7.4, MgCl2 10 and NaCl 100). Filters were dried and mixed with scintillant, and counted for ^35S activity using a β-counter. Agonist-induced GTP γ^35S binding was obtained by subtracting that in the absence of agonist. Binding data were analyzed using a non-linear regression method. In case of antagonist assay, the reaction mixture contained 10 nM S1P in the presence of test antagonist at concentrations ranging from 0.08 to 5000 nM.

[2] = test system: female C57BL6 mice; experiment: Lymphopenia assay in mice; type: in vivo; details: after 5 hours, 10 mg/Kg subcutaneously, FIG. 1
Procedure: Test drugs are prepared in a solution containing 3% (w/v) 2-hydroxy propyl β-cyclodextrin (HPBCD) and 1% DMSO to a final concentration of 1 mg/ml, and subcutaneously injected to female C57BL6 mice (CHARLES RIVERS) weighing 20-25 g at the dose of 10 mg/Kg. Blood samples are obtained by puncturing the submandibular skin with a Goldenrod animal lancet at 5, 24, 48, 72, and 96 hrs post drug application. Blood is collected into microvettes (SARSTEDT) containing EDTA tripotassium salt. Lymphocytes in blood samples are counted using a HEMAVET Multispecies Hematology System, HEMAVET HV950FS (Drew Scientific Inc.). (Hale, J. et al Bioorg. & Med. Chem. Lett. 14 (2004) 3351).
A lymphopenia assay in mice; as previously described, was employed to measure the in vivo blood lymphocyte depletion after dosing with 1-{4-[(5-phenylpentyl)oxy]-3-(2-thienyl)benzyl}azetidine-3-carboxylic acid. This S1P1 agonist is useful for S1P-related diseases and exemplified by the lymphopenia in vivo response. […] Lymphocytes in blood samples were counted using a HEMAVET Multispecies Hematology System, HEMAVET HV950FS (Drew Scientific Inc.). […]

T1 sequence (P21453 whole entry): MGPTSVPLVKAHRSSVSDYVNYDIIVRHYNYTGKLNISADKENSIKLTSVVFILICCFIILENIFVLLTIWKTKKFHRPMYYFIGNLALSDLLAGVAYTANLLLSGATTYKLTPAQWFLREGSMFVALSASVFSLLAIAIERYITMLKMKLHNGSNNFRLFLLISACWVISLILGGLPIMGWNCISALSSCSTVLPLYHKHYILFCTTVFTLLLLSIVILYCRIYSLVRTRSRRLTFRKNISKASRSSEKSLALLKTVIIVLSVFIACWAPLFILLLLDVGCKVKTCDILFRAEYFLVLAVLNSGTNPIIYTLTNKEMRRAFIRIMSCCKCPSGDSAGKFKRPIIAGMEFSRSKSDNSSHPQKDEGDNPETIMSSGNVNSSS

| Compound | pEC50 [1] | lymphocyte count (number of lymphocytes 10^3/μL blood) [2] |
| --- | --- | --- |
| O=C(O)C1CN(Cc2ccc(OCCCCCc3ccccc3)c(-c3cccs3)c2)C1 [Compound 16, 1-{4-[(5-phenylpentyl)oxy]-3-(2-thienyl)benzyl}azetidine-3-carboxylic acid] | 7.82 | < 1 10^3/μL blood |
| O=C(O)C1CN(Cc2ccc(SCCCCCc3ccccc3)c(-c3cccs3)c2)C1 [Compound 26, 1-{4-[(5-phenylpentyl)thio]-3-(2-thienyl)benzyl}azetidine-3-carboxylic acid] | 6.74 |  |
| O=C(O)C1CN(Cc2ccc(OCCCCCc3ccccc3)c(-n3cccn3)c2)C1 [Compound 25, 1-{4-[(5-phenylpentyl)oxy]-3-(1H-pyrazol-1-yl)benzyl}azetidine-3-carboxylic acid] | 7.66 |  |

Now from value to compound, other results behind:

| pEC50 [1] | Compound | lymphocyte count (number of lymphocytes 10^3/μL blood) [2] |
| --- | --- | --- |
| 7.82 | O=C(O)C1CC(NCc2ccc(OCCCCCc3ccccc3)c(-c3cccs3)c2)C1 (stereo not drawn) [Compound 28, 3-({4-[(5-phenylpentyl)oxy]-3-(2-thienyl)benzyl}amino)cyclobutanecarboxylic acid] |  |
| 7.89 | O=C(O)C1CN(Cc2ccc(OCCCCCc3ccccc3)c(C3=CCCC3)c2)C1 [Compound 15, 1-{3-cyclopent-1-en-1-yl-4-[(5-phenylpentyl)oxy]benzyl}azetidine-3-carboxylic acid] |  |
